Source: US5002931A, “GRF analogs VII” (The Salk Institute for Biological Studies, priority 1987, dated 1991)
Square brackets hold non-standard residues; d marks the D form. Ends that are not written are not given here. Peptide text beside a SMILES is read from it. NMeY = CN[C@@H](Cc1ccc(O)cc1)C(=O)O; Nle = CCCC[C@H](N)C(=O)O

System: cells of rat pituitary glands
Test: in vitro assay of growth hormone release from cultured rat pituitary cells, GH measured by radioimmunoassay
Type: cell-based
Details: release of GH at equimolar concentrations, side-by-side with synthetic hpGRF(1-40)-OH standard = 100%; incubation 3 to 4 hours
Experimental: To determine the relative effectiveness of certain representative synthetic peptides to promote the release of growth hormone, in vitro assays are carried out using synthetic hpGRF(1-40)-OH as a standard in side-by-side comparison with equimolar concentrations of the representative analogs which have been synthesized. Cultures are used which include cells of rat pituitary glands removed some three to five days previously. Such cultures are considered optimal for the secretion of growth hormone and are used for the comparative testing, in the general manner described in Vale et al. Endocrinoloqy, 91, 562-572 (1972) and as more particularly described in Vale et al. Endocrinology, 112, 1553-1555 (1983). Incubation with the substance to be tested is carried out for 3 to 4 hours, and aliquots of the culture medium are removed and processed to measure their contents in immunoreactive GH(ir GH) by a well-characterized radioimmunoassay.

Row | Molecule | Comparison %
1 | CCCC[C@H](NC(=O)[C@@H](NC(=O)[C@H](CC(=O)O)NC(=O)[C@H](CCC(N)=O)NC(=O)[C@H](CC(C)C)NC(=O)[C@H](CC(C)C)NC(=O)[C@H](CCCCN)NC(=O)[C@H](CCCNC(=N)N)NC(=O)[C@H](C)NC(=O)[C@H](CO)NC(=O)[C@H](CC(C)C)NC(=O)[C@H](CCC(N)=O)NC(=O)[C@H](C)NC(=O)[C@H](CC(C)C)NC(=O)[C@@H](NC(=O)[C@H](CCCCN)NC(=O)[C@H](CCCNC(=N)N)NC(=O)[C@H](Cc1ccc(O)cc1)NC(=O)[C@H](CO)NC(=O)[C@H](CC(=O)O)NC(=O)[C@@H](NC(=O)[C@H](Cc1ccccc1)NC(=O)[C@@H](NC(=O)[C@H](C)NC(=O)[C@H](CC(=O)O)NC(=O)[C@H](C)NC(=O)[C@H](Cc1ccc(O)cc1)NC)[C@@H](C)CC)[C@@H](C)O)C(C)C)[C@@H](C)CC)C(=O)N[C@@H](CC(N)=O)C(=O)N[C@@H](CCCNC(=N)N)C(N)=O [[N^a MeTyr^1, Asp^8, Ala^15, Nle^27, Asn^28]-hGRF(1-29)-NH2] (H-[NMeY]ADAIFTDSYRKVLAQLSARKLLQDI[Nle]NR-NH2) | 192%
2 | CCCC[C@H](NC(=O)[C@@H](NC(=O)[C@H](CC(=O)O)NC(=O)[C@H](CCC(N)=O)NC(=O)[C@H](CC(C)C)NC(=O)[C@H](CC(C)C)NC(=O)[C@@H](CCCCN)NC(=O)[C@H](CCCNC(=N)N)NC(=O)[C@H](C)NC(=O)[C@H](CO)NC(=O)[C@H](CC(C)C)NC(=O)[C@H](CCC(N)=O)NC(=O)CNC(=O)[C@H](CC(C)C)NC(=O)[C@@H](NC(=O)[C@H](CCCCN)NC(=O)[C@H](CCCNC(=N)N)NC(=O)[C@H](Cc1ccc(O)cc1)NC(=O)[C@H](CO)NC(=O)[C@H](CC(N)=O)NC(=O)[C@@H](NC(=O)[C@H](Cc1ccccc1)NC(=O)[C@@H](NC(=O)[C@H](C)NC(=O)[C@H](CC(=O)O)NC(=O)[C@H](C)NC(=O)[C@H](Cc1ccc(O)cc1)NC)[C@@H](C)CC)[C@@H](C)O)C(C)C)[C@@H](C)CC)C(=O)N[C@@H](CO)C(=O)N[C@@H](CCCNC(=N)N)C(N)=O [[N^a MeTyr^1, D-Lys^21, Nle^27]-hGRF(1-29)-NH] | 172%
3 | CCCC[C@H](NC(=O)[C@@H](NC(=O)[C@H](CC(=O)O)NC(=O)[C@H](CCC(N)=O)NC(=O)[C@H](CC(C)C)NC(=O)[C@H](CC(C)C)NC(=O)[C@@H](CCCCN)NC(=O)[C@H](CCCNC(=N)N)NC(=O)[C@H](C)NC(=O)[C@H](CO)NC(=O)[C@H](CC(C)C)NC(=O)[C@H](CCC(N)=O)NC(=O)CNC(=O)[C@H](CC(C)C)NC(=O)[C@@H](NC(=O)[C@H](CCCCN)NC(=O)[C@H](CCCNC(=N)N)NC(=O)[C@@H](Cc1ccc(O)cc1)NC(=O)[C@H](CO)NC(=O)[C@H](CC(N)=O)NC(=O)[C@@H](NC(=O)[C@H](Cc1ccccc1)NC(=O)[C@@H](NC(=O)[C@H](C)NC(=O)[C@H](CC(=O)O)NC(=O)[C@H](C)NC(=O)[C@H](Cc1ccc(O)cc1)NC)[C@@H](C)CC)[C@@H](C)O)C(C)C)[C@@H](C)CC)C(=O)N[C@@H](CO)C(=O)N[C@@H](CCCNC(=N)N)C(N)=O [[N^a MeTyr^1, D-Tyr^10, D-Lys^21, Nle^27]-hGRF(1-29)-NH2] | 40%
4 | CCCC[C@H](NC(=O)[C@@H](NC(=O)[C@H](CC(=O)O)NC(=O)[C@H](CCC(N)=O)NC(=O)[C@H](CC(C)C)NC(=O)[C@H](CC(C)C)NC(=O)[C@H](CCCCN)NC(=O)[C@H](CCCNC(=N)N)NC(=O)[C@H](C)NC(=O)[C@H](CO)NC(=O)[C@H](CC(C)C)NC(=O)[C@H](CCC(N)=O)NC(=O)[C@H](C)NC(=O)[C@H](CC(C)C)NC(=O)[C@@H](NC(=O)[C@H](CCCCN)NC(=O)[C@H](CCCNC(=N)N)NC(=O)[C@H](Cc1ccc(O)cc1)NC(=O)[C@H](CO)NC(=O)[C@H](CCCCN)NC(=O)[C@@H](NC(=O)[C@H](Cc1ccccc1)NC(=O)[C@@H](NC(=O)[C@H](C)NC(=O)[C@H](CC(=O)O)NC(=O)[C@H](C)NC(=O)[C@H](Cc1ccc(O)cc1)NC)[C@@H](C)CC)[C@@H](C)O)C(C)C)[C@@H](C)CC)C(=O)N[C@@H](CC(N)=O)C(=O)N[C@@H](CCCNC(=N)N)C(N)=O [[N^a MeTyr^1, Lys^8, Ala^15, Nle^27, Asn^28]-hGRF(1-29)-NH2] (H-[NMeY]ADAIFTKSYRKVLAQLSARKLLQDI[Nle]NR-NH2) | 556%
5 | hGRF(1-40)-OH (YADAIFTNSYRKVLGQLSARKLLQDIMSRQQGESNQERGA-OH; UniProt P01286 32-71, looked up, fragment) [synthetic human pancreatic (tumor) GH releasing factor 1-40 free acid, used as standard in the assays, reference compound] | 100%
